Reference: the METLIN SMRT retention time set (Domingo-Almenara et al. 2019)

Experiment: gradient 5% acetonitrile 3 min, to 50% in 2 min, to 85% in 15 min, held 3 min, 100 µL/min
Settings: column: Zorbax Extend-C18 2.1 x 50 mm; eluents: water / acetonitrile, 0.1% formic acid
Procedure, shortened: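 A Zorbax Extend-C18 column (2.1 × 50 mm, 1.8 μm) run at 100 μL/min with water and acetonitrile, both containing 0.1% formic acid, separated mixtures of ~100 pure standards. The HPLC was coupled to a quadrupole time-of-flight mass spectrometer operated in positive and negative ionization mode, with dead and dwell volumes of 40 μL and 900 μL. Each retention time was taken from a computationally picked adduct peak that was then manually inspected.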

Compound | RP-LC retention time
CCOC(=O)c1nc(Nc2ccc(C(=O)OCC(C)C)cc2)c2ccccc2n1 | 1090 s
CC(CCc1ccccc1)NC(=O)C1CCCN(c2nccnc2Oc2ccccc2)C1 (centres undefined) | 1100 s
CN1C(=O)c2cccnc2Sc2cc(NC(=O)c3ccccc3C(F)(F)F)ccc21 | 799 s
CNC(=O)[C@@H]1CN(S(=O)(=O)C(C)C)C[C@H]1COC | 579 s
COc1ccc(N2CCN(C(=O)NC3CCOCC3)CC2)cc1 | 599 s
O=C(NC(Cc1ccccc1)C(=O)N1CCN(c2ccccn2)CC1)c1cccc(Cl)c1 (centres undefined) | 698 s
O=c1c2cc(-c3ccc(F)cc3)nn2cnn1Cc1nc(-c2ccc(F)cc2)no1 | 1100 s
Cc1oc(C2CCN(S(=O)(=O)Cc3ccccc3)CC2)nc1C(=O)N1CCOCC1 | 759 s
CCc1nccn1Cc1noc(-c2ccccc2C)n1 | 649 s
CC(=O)N1CCCC1c1nc(C2CN(S(=O)(=O)C(C)C)C2)no1 (centres undefined) | 635 s
NC(=O)c1c(NC(=O)C2COc3ccccc3O2)sc2c1CCN(Cc1ccccc1)C2 (centres undefined) | 587 s
O=c1c2cc(-c3cccs3)nn2ccn1Cc1noc(CN2CCCCCCC2)n1 | 688 s
CCn1cc(CN(Cc2c(C)nn(C)c2C)C(=O)C2CCN(c3cnn(C)c(=O)c3)C2)cn1 (centres undefined) | 603 s
COc1ccc(S(=O)(=O)N2CCCC(C(=O)Nc3ccc4c(c3)OCO4)C2)cc1Cl (centres undefined) | 941 s
O=C(Cc1ccc(NC(=O)CSCc2ccccc2)cc1)NCC(F)(F)F | 801 s
O=C(NCC1CCN(C(=O)COc2ccccc2)CC1)Nc1cccc(C(F)(F)F)c1 | 840 s
COC(=O)C1=C(C)NC2=C(C(=O)c3ccccc32)C1c1ccccc1OC (centres undefined) | 901 s
COc1cc2c(cc1CNC(=O)Cn1cc(C(=O)C(C)C)c3ccccc31)OCCCO2 | 893 s
Cc1ccc(-c2[nH]ncc2CN2C[C@@H]3CCN(S(C)(=O)=O)C[C@]3(CF)C2)cc1C | 617 s
O=C(NCc1cccc(F)c1)c1ccc2c(c1)ncn2CCN1CCCC1 | 582 s
Cc1ccc2oc(-c3noc(C(=O)NCCN4CCC(C)CC4)n3)c(C)c2c1 | 759 s
O=C(c1ccsc1)N1CCN(c2[nH]ncc2-c2ccccc2)CC1 | 774 s

Compound | RP-LC retention time
CCOc1ccccc1NC(=O)N1C[C@H](c2nc(-c3cccnc3)no2)[C@@H](C)C1 | 937 s
Clc1nnc(NC2CCCCC2)c(Cl)c1Cl | 1200 s
COc1ccc(-c2cc(N3CCN(C(=O)NCC(C)C)CC3)ncn2)cc1OC | 623 s
Cc1nnc2c(=O)n(CC(=O)NCc3ccc(Cl)cc3)c3cccnc3n12 | 703 s
CCOC(=O)c1c(C)[nH]c(C)c1S(=O)(=O)N1CCC(C(=O)NCc2cccc(C)c2)CC1 | 668 s
CCc1cccc(C)c1NC(=O)Cn1nc2c3cccc(C)c3ncn2c1=O | 615 s
COC[C@@H]1CN(S(=O)(=O)Cc2ccccc2)C[C@H]1c1ccncc1 | 637 s
CCc1nc2c(NC(=O)COC)cccn2n1 | 646 s
O=C(Nc1cccc(-c2ccc(N3CCOCC3)nn2)c1)Nc1cccc(C(F)(F)F)c1 | 782 s
CCOCCCNC(=O)c1nc(Nc2ccc(C)cc2)c2ccccc2n1 | 746 s
COc1ccc(F)cc1S(=O)(=O)N1CCN(c2c(C)nn(-c3ccccc3)c2C)CC1 | 965 s
CN(CC1(C)CCOCC1)C(=O)COc1ccc(Cl)cc1 | 816 s
Cc1cc(C)n(CC(=O)NC(C)c2ccccc2)c1-c1nc(C2CC2)no1 (centres undefined) | 914 s
CN(CC#N)C(=O)c1cc2c(Cl)ccc3c2n1CCO3 | 865 s
O=C(CSc1cc(-n2cccn2)ncn1)Nc1cc(Cl)ccc1Cl | 1090 s
COc1ccc(NC(=O)CN2C(=O)CC(C)Sc3ccccc32)c(OC)c1 (centres undefined) | 853 s
CCCCCn1c(=O)c2ccccc2n(Cc2nc(-c3ccc4c(c3)OCO4)no2)c1=O | 1180 s
C=CCNC(=O)c1cn(-c2ccc(-c3nc(C4CC4)no3)cn2)cn1 | 788 s
CCOC(=O)C1=C(C)NC2=C(C(=O)C(C(=O)OC)C(C)C2)C1c1ccccc1Cl (centres undefined) | 965 s
COc1cc(OC)cc(-c2noc(CCn3nc(-c4ccc5c(c4)OCO5)ccc3=O)n2)c1 | 908 s
Cc1ccc(OCC(O)CN2CCN(c3ccccc3)CC2)cc1C (centres undefined) | 726 s
CCc1noc(-c2nc(-c3cc(OC)c(OC)c(OC)c3)no2)n1 | 892 s
